According to patent US9388126B2, “Sigma receptor ligands and methods of modulating cellular protein homeostasis using same” (Drexel University, priority 2012, dated 2016):

Key:
Type in all cases: cell-based, human
[1] = test system: MDA-MB-468 cells; assay: Cell size by flow cytometry (mean FSC-H, G1 phase); settings: 10 μM
Procedure: FIG. 11 is a graph illustrating decrease in MDAMB468 cell size associated with the Sigma1 antagonist treatment. MDA-MB-468 cells were treated for 24 hours with DMSO (control), 10 μM IPAG (antagonist), or 10 μM PRE084 (agonist). Cell size was quantitated by flow cytometry, using a Becton Dickinson FACS Calibur flow cytometer with Cell Quest software. The mean forward scatter height (FSC-H) of the G1-phase population was determined as a measure of relative cell size. Single cells were gated away from aggregated cells using an FL2-width versus FL-2 area dot plot. Mean FSC-H±S.E. was calculated from at least 4 independent determinations. For each FSC-H determination, FACS analysis was performed on 10,000 single cells. The mean FSC-H of DMSO (control) and PRE084 treated MDA-MB-468 measured 370±6 and 372±7, respectively, whereas the mean FSC-H of IPAG treated MDA-MB-468 cells was 323±4. ** P<0.01 for IPAG compared to DMSO and IPAG compared to PRE084.
FIG. 31A is a differential interference contrast (DIC) image of MDA-MB-468 breast adenocarcinoma cells treated for ˜20 hours with DMSO (drug vehicle control), 10 μM IPAG (antagonist) or 10 μM PRE084 (agonist). A twenty-micron bar is shown in each image. Data are presented as mean±SEM. FIG. 31B is a graph illustrating the finding that IPAG diminished the mean cell size (FSC-H) of MDA-MB-468 breast tumor cells in a time-responsive manner. The mean FSC-H of 370±5 at to decreased to 323±4 after 24 hours of IPAG treatment and to 267±2 after 48 hours of treatment. Two-tailed t-tests were performed to determine statistical significance. For IPAG treatment compared to control (DMSO) and Sigma agonists (SKF and PRE084), P=0.0002 at d1 and P=0.00013 at d2. Data were generated from three to five independent determinations for each time-point. […] T-47D were treated for 24 h with 1 and 10 μM IPAG, and mean FSC-H was measured. […] For FIGS. 31B-31E, the mean FSC-H was determined for each cell cycle population (i.e., G1, S, G2/M), and data is shown for G1 phase cells. […]

[2] = test system: MCF-7, T47D, DU145, PC3, HepG2 and Panc1 cells; assay: LC3BII immunoblot in a range of tumor cell lines; settings: 10 μM, 24 hours
Procedure: FIG. 36, comprising FIGS. 36A-36C, illustrates Sigma1 antagonist associated autophagy. FIG. 36A, comprises representative images of translocation of GFP-tagged LC3 (LC3-GFP) into autophagosomes in MDA-MB-468 (MDA468) breast adenocarcinoma cells. Only antagonist-treated MDA-MB-468 cells presented LC3-GFP translocation to autophagosomes: […]. […] The images are representative of at least 80 fields for each treatment condition. FIG. 36B is an image of an immunoblot illustrating the finding that formation of GFP-LC3II the formation of GFP-LC3 positive punctae, an indicator of autophagosome formation. Protein extracts from MDA-MB-468 cells stably transfected with and expressing GFP-LC3, treated for 24 hours with 10 μM of the indicated Sigma1 ligand. FIG. 36C comprises images of immunoblots illustrating that increased levels of the microtubule associated protein light chain 3BII isoform (LC3BII) is another broadly used indicator of activated autophagy. […] Legend: MCF-7 (breast adenocarcinoma), T47D (breast adenocarcinoma), DU145 (prostate adenocarcinoma), PC3 (prostate adenocarcinoma), HepG2 (hepatocellular carcinoma), and Panc1 (pancreatic adenocarcinoma).

[3] = test system: MDA-MB-468 (GFP-LC3) cells; assay: GFP-LC3 punctae (autophagosome formation) microscopy assay; settings: for punctae per cell / mean number of punctae per cell: 24 hours; for autophagosomes per cell / GFP-LC3 punctae per cell: 10 μM for 20 hours
Procedure: The human GFP-LC3 expression plasmid, pEGFP-LC3 (a gift from Drs. Grazia Ambrosini and Gary K. Schwartz, MSKCC), was stably transfected into MDA-MB-468 and selected with 0.5 mg/ml G418 sulfate. Stable populations were generated and compared to parental MDA-MB-468 for Sigma1 expression and autophagic and growth inhibitory response to Sigma ligands. GFP-LC3 translocation (punctae formation) was assessed by microscopy in MDA-MB-468 (GFP-LC3) stable cell populations. For microscopy-based experiments, cells were seeded onto Lab-Tek II glass chamber slides (Nalge Nunc International). […] Images of GFP-LC3 punctae were acquired with a Zeiss Axioplan 2 Imaging widefield microscope using Axiovision LE software. Punctae were counted using the spot quantitation program in the Fluoro-Chem software package (Alpha Innotech) and confirmed in parallel by manual counting. Autophagosome formation in MDAMB-468 (GFP-LC3) cells was quantitated as the mean number of GFP-LC3 punctae per GFP positive cell.
Initially, an established immunoblot-based assay to detect microtubule associated protein light chain 3 (LC3) lipidation was used to test for the activation of autophagy. […] Since transient transfections can produce spurious GFP-LC3 aggregates, stable GFP-LC3 transfected populations of MDA-MB-468 (GFP-LC3) were generated. […]

For `N=C(Nc1ccc(I)cc1)NC1C2CC3CC(C2)CC1C3` (centres unmarked) [IPAG, 1-(4-iodophenyl)-3-(2-adamantyl)guanidine], the “mean FSC-H (relative cell size)” value ([1]; 24 hours) was 323±4, the “mean FSC-H (relative cell size)” value ([1]; 48 hours) was 267±2 and the LC3BII levels [2] was “salient induction of LC3BII levels”. For the same compound, the punctae per cell ([3]; 10 μM IPAG alone, 3-MA experiment) was 23±2 punctae per cell, the punctae per cell ([3]; 10 μM IPAG with addition of 3-MA (5 mM)) was 12±1 punctae per cell and the autophagosomes per cell ([3]; ATF4 knocked down) was 5±1 autophagosomes per cell. The autophagosomes per cell ([3]; IRE1α knocked down) was 9±2 autophagosomes per cell, the “GFP-LC3 punctae per cell” value ([3]; Sigma1-knockdown cells) was 10±2 punctae per cell and the “GFP-LC3 punctae per cell” value ([3]; control siRNA transfected cells) was 28±4 punctae per cell. The autophagosomes per cell ([3]; no UPR knockdown) was 24±2 autophagosomes per cell, the “mean number of punctae per cell” value ([3]; 10 μM, knockdown of Beclin1) was 6±1 punctae per cell and the “mean number of punctae per cell” value ([3]; 10 μM, without Beclin1 knockdown) was 28±3 punctae per cell. For the same compound, the “time at which significant formation of autophagosomes was detected” value ([3]; 10 μM, GFP-LC3 punctae and LC3II immunoblot) was 6 to 12 h, the EC50 ([3]; Homo sapiens, MDA-MB-468, 24 hours of treatment, read-out: potency (EC50±S.E.M.) of autophagosome formation (GFP-LC3 punctae)) was 9 ± 3 µM and the autophagosome formation ([3]; IPAG alone, JNK inhibitor experiment) was 23±2. For the same compound, the autophagosome formation ([3]; IPAG and JNK inhibitor SP600125) was 7±1 and the “concentration at which precipitous cell death occurred” value ([3]; following 24 hours of treatment) was 40 µM.
